Test results published in PMC2396520, “Antibody Complementarity-Determining Regions (CDRs) Can Display Differential Antimicrobial, Antiviral and Antitumor Activities” (PLoS ONE, 2008).
pEC50: −log10 of the molar value. Read-outs that look alike come from different tables or passages of the source. Where a SMILES comes first, the peptide text is derived from it.

How the values were obtained:
[1] = system: R5 HIV-1; type: cell-based; conditions: for % inhibitory activity (10 µg/ml): R5, 2 h; for % inhibitory activity (10 µg/ml), endogenous HIV-1 replication: ex vivo, day 10 of culture, p24, mean of 3 determinations
Protocol: (§3) Briefly, for endogenous HIV-1 replication assays peripheral blood mononuclear cells (PBMCs) from R5 HIV-1-infected patients characterized by high viral RNA titers in plasma and cell-associated viremia were cultured in 96-well plates at 1×10^6 cells/mL in RPMI 1640 medium with 10% fetal calf serum (FCS) and 20 U/mL of rIL-2. Exogenous rIL-2 was added every 3–4 days. Cultures were treated with synthetic mAb CDRs and mAb C7/pc42 H1 asd at 10 µg/mL during the time of culture. Virus production on days 5 and 10 was assayed in the supernatants using ultrasensitive Alliance® HIV-1 p24 ELISA kit (Perkin Elmer); p24 Ag in the supernatants of untreated cultures corresponded to 100% of viral production. For exogenous infection assays, PHA-stimulated PBMCs obtained from healthy individuals were infected with BaL (R5) or IIIB (X4) HIV-1 strain at a median tissue culture infective dose (TCID50) of 500 TCID50/ml. After 2 h of adsorption, the cells were washed, suspended at 2×10^5 cells/ml in medium and cultured in 96-well cultures plates. At time zero of infection, synthetic peptides were added to the cultures at 10 µg/ml and were maintained throughout the experiment. All assays were performed in triplicate. Virus production was assayed 10 days after infection in the supernatants of HIV-1-infected PBMCs by p24 assay.

[2] = system: Candida albicans UP10; type: cell-based; conditions: for Anti-Candida activity (%) at 100 µg/mL: 37°C, 6 h, triplicate; for pEC50: UP10, 6 h; for EC50asd/EC50H2: anti-Candida EC50 of the derivative relative to C7/pc42 H2
Protocol: The alanine substituted derivatives (asd), defined according to the position held by the alanine-substituted aminoacid, were tested in the same biological assays to critically establish the functional relevance of each residue [5]. In vitro microbicidal activity of CDR peptides and selected asd against C. albicans UP 10 (clinical isolate from the fungi collection of the University of Parma) and C. albicans NCPF 3153 (National Collection of Pathogenic Fungi, Bristol, UK) were used for the in vitro experiments.
The microbicidal activity of synthetic CDRs against C. albicans strains was preliminarily evaluated by testing 100 µg/mL of each synthetic peptide by colony forming unit (CFU) assays as previously described [5]. Briefly, 10 µL of a distilled water suspension containing ∼5×10^4/mL germinating yeast cells were added to 90 µL of distilled water containing the synthetic peptide to be tested. Yeast suspensions were incubated at 37°C for 6 h. After incubation, the cell suspensions were plated on Sabouraud dextrose agar, incubated at 30°C and observed for CFU determination after 48–72 hours. Each assay was carried out in triplicate. […] EC50 was calculated by nonlinear regression analysis using Graph Pad Prism 4.01 software, San Diego, CA, USA.

[3] = system: HIV-1 IIIB (X4); assay: In vitro exogenous HIV-1 infection of PHA-stimulated PBMCs, IIIB strain (p24 assay); type: cell-based; conditions: day 10, p24, mean of 3 determinations
Protocol: as §3

[4] = system: HIV-1 BaL (R5); assay: In vitro exogenous HIV-1 infection of PHA-stimulated PBMCs, BaL strain (p24 assay); type: cell-based; conditions: day 10, p24, mean of 3 determinations
Protocol: as §3

[5] = system: C. albicans NCPF 3153; assay: Murine invasive candidiasis, i.p. peptide treatment; type: in vivo, BALB/c mice; conditions: day 5 post-infection; 200 µg peptide i.p. x3; saline 160.3±46.6
Protocol: Animal experiments were approved by the Institutional Review Board of the School of Medicine and Odontology at the University of the Basque Country, Spain. Female BALB/c mice, 8-weeks old (11–12 animals/group), were infected intravenously with 5×10^5 C. albicans NCPF 3153 yeast cells suspended in 0.1 mL saline. Mice were treated i.p. with 200 µg of mAb C7 L1 and mAb C7/pc42 H1 and H2 for 3 days starting on day 0, and 4 h after the fungal challenge, and at 24 and 48 h thereafter. Control mice were injected with saline (same treatment schedule as those treated with the CDRs). Protection was evaluated by monitoring animal survival for 20 days. The mean survival time and numbers of CFU of C. albicans in infected tissues were calculated as reported previously.
The Kaplan-Meier log rank test was applied to survival data. Data on CFU in infected tissues were analyzed by Student's t test. p values of 0.05 were considered significant.

[6] = system: B16F10-Nex2 murine melanoma cells; type: cell-based; conditions: 12 h
[7] = system: SKmel-28; type: cell-based, human
Protocol: (§1) Murine B16F10-Nex2 melanoma cells (cloned at the Experimental Oncology Unit, Federal University of São Paulo, UNIFESP), and human SKmel28 and SKmel25 human melanoma cell lines originally obtained from the Memorial Sloan Kettering Cancer Center, New York, were cultured at 37°C, under humid atmosphere and 5% CO2, in RPMI-1640 medium with 10 mM N-2-hydroxyethylpiperazine-N2 ethanesulphonic acid (HEPES), 24 mM sodium bicarbonate, 40 mg/L gentamycin, pH 7.2 and 10% FCS.
(§2) Synthetic CDRs, scrambled peptides (controls), and […] of mAb C7/pc42 H2, selected for the highest cytotoxic activity, were diluted from 1 mM to 0.05 mM in RPMI with 10% FCS and incubated with B16F10-Nex2, SKmel28 and SKmel25 cells (5×10^3 cells/well) in 100 µL per well for 12 h at 37°C. Each peptide was tested in triplicate. After 12 h, the cytotoxic activities of the peptides were determined by measuring cell viability by Trypan Blue exclusion.

[8] = system: SKmel-25; type: cell-based, human
Protocol: as §1, §2

[9] = CDR peptides, 100 µg/mL in distilled water, CFU after 48–72 h, C. albicans UP10
[10] = C7/pc42 H2 alanine-substituted derivatives, 100 µg/mL, CFU assay

| Compound | Anti-Candida activity (%) at 100 µg/mL [2, 9] [%] | % inhibitory activity (10 µg/ml), exogenous HIV-1 replication, IIIB [3] [%] | % inhibitory activity (10 µg/ml), exogenous HIV-1 replication, BaL [4] [%] | % inhibitory activity (10 µg/ml), endogenous HIV-1 replication ([1]; 10 µg/ml) [%] | further results |
| --- | --- | --- | --- | --- | --- |
| CSCC[C@H](NC(=O)[C@H](Cc1ccc(O)cc1)NC(=O)[C@H](Cc1ccc(O)cc1)NC(=O)CN)C(=O)N[C@@H](C)C(=O)O [H5A] (H-GYYMA-OH; N-terminus and C-terminus assumed) |  |  |  |  | % inhibitory activity (10 µg/ml) [1]: 0% |
| CSCC[C@H](NC(=O)[C@H](Cc1ccc(O)cc1)NC(=O)[C@H](Cc1ccc(O)cc1)NC(=O)[C@H](C)N)C(=O)N[C@@H](Cc1c[nH]cn1)C(=O)O [G1A] (H-AYYMH-OH; N-terminus and C-terminus assumed) |  |  |  |  | % inhibitory activity (10 µg/ml) [1]: 0% |
| DASNRAT [HuA L2, synthetic peptide identical to light chain CDR L2 of human IgM mAb HuA] | 0 | 0 | 0 | 32 |  |
| SYTFH [HuA H1, synthetic peptide identical to heavy chain CDR H1 of human IgM mAb HuA] | 12.9 | 0 | 84 | 38 |  |
| GQTTVTKIDEDY [HuA H3, synthetic peptide identical to heavy chain CDR H3 of human IgM mAb HuA] | 19.2 | 0 | 0 | 36 |  |
| GYYMH [C7/pc42 H1, synthetic peptide identical to heavy chain CDR H1 shared by mAb C7 and mAb pc42] | 69.2 | 0 | 24 | 58 | CFU counts in kidney tissue [5]: 119.6±35.5; inhibition of R5 HIV-1 replication in treated cultures ([1]; ex vivo conditions, 10 µg/ml): > 50% |
| CSCC[C@H](NC(=O)[C@H](C)NC(=O)[C@H](Cc1ccc(O)cc1)NC(=O)CN)C(=O)N[C@@H](Cc1c[nH]cn1)C(=O)O [Y3A] (H-GYAMH-OH; N-terminus and C-terminus assumed) |  |  |  |  | % inhibitory activity (10 µg/ml) [1]: 90% |
| CC[C@H](C)[C@H](NC(=O)[C@@H](N)Cc1ccc(O)cc1)C(=O)N[C@@H](CO)C(=O)N[C@@H](CS)C(=O)N[C@@H](Cc1ccc(O)cc1)C(=O)N[C@@H](CC(N)=O)C(=O)NCC(=O)N[C@@H](C)C(=O)N[C@H](C(=O)N[C@@H](CO)C(=O)N[C@@H](Cc1ccc(O)cc1)C(=O)N[C@@H](CC(N)=O)C(=O)N[C@@H](CCC(N)=O)C(=O)N[C@@H](CCCCN)C(=O)N[C@@H](Cc1ccccc1)C(=O)N[C@@H](CCCCN)C(=O)O)[C@@H](C)O [C7/pc42 H2] (H-YISCYNGATSYNQKFK-OH) |  |  |  |  | pEC50 [2]: 5.38; pEC50 [6]: 4.27; cytotoxicity to human melanoma cell line SKmel-28 [7]: equally cytotoxic; cytotoxicity to human melanoma cell line SKmel-25 [8]: equally cytotoxic |
| QHIRELTRSE [pc42 L3, synthetic peptide identical to light chain CDR L3 of mouse mAb pc42] | 83.9 | 0 | 0 | 0 |  |
| CC[C@H](C)[C@H](NC(=O)[C@@H](N)Cc1ccc(O)cc1)C(=O)N[C@@H](CO)C(=O)N[C@@H](CS)C(=O)N[C@@H](Cc1ccc(O)cc1)C(=O)N[C@@H](CC(N)=O)C(=O)NCC(=O)N[C@@H](C)C(=O)N[C@H](C(=O)N[C@@H](CO)C(=O)N[C@@H](Cc1ccc(O)cc1)C(=O)N[C@@H](CC(N)=O)C(=O)N[C@@H](CCC(N)=O)C(=O)N[C@@H](CCCCN)C(=O)N[C@@H](C)C(=O)N[C@@H](CCCCN)C(=O)O)[C@@H](C)O [F15A] (H-YISCYNGATSYNQKAK-OH; N-terminus and C-terminus assumed) |  |  |  |  | Anti-Candida activity (%) at 100 µg/mL [2, 10]: 100.00%; pEC50 [2]: 6.04; EC50asd/EC50H2 [2]: 0.22; pEC50 [6]: 3.00 |
| ARQGVRGGAMD [C7 H3, synthetic peptide identical to heavy chain CDR H3 of mouse mAb C7] | 55.5 | 75 | 0 | 0 |  |
| PNPLKAM [pc42 H3, synthetic peptide identical to heavy chain CDR H3 of mouse mAb pc42] | 25.9 | 0 | 11 | 0 |  |
| CSCC[C@H](NC(=O)[C@H](Cc1ccc(O)cc1)NC(=O)[C@H](C)NC(=O)CN)C(=O)N[C@@H](Cc1c[nH]cn1)C(=O)O [Y2A] (H-GAYMH-OH; N-terminus and C-terminus assumed) |  |  |  |  | % inhibitory activity (10 µg/ml) [1]: 61% |
| CC[C@H](C)[C@H](NC(=O)[C@@H](N)Cc1ccc(O)cc1)C(=O)N[C@@H](CO)C(=O)N[C@@H](CS)C(=O)N[C@@H](Cc1ccc(O)cc1)C(=O)N[C@@H](CC(N)=O)C(=O)N[C@@H](C)C(=O)N[C@@H](C)C(=O)N[C@H](C(=O)N[C@@H](CO)C(=O)N[C@@H](Cc1ccc(O)cc1)C(=O)N[C@@H](CC(N)=O)C(=O)N[C@@H](CCC(N)=O)C(=O)N[C@@H](CCCCN)C(=O)N[C@@H](Cc1ccccc1)C(=O)N[C@@H](CCCCN)C(=O)O)[C@@H](C)O [G7A] (H-YISCYNAATSYNQKFK-OH; N-terminus and C-terminus assumed) |  |  |  |  | Anti-Candida activity (%) at 100 µg/mL [2, 10]: 100.00%; pEC50 [2]: 5.14; EC50asd/EC50H2 [2]: 1.74; pEC50 [6]: 4.20 |
| CC[C@H](C)[C@H](NC(=O)[C@@H](N)Cc1ccc(O)cc1)C(=O)N[C@@H](C)C(=O)N[C@@H](CS)C(=O)N[C@@H](Cc1ccc(O)cc1)C(=O)N[C@@H](CC(N)=O)C(=O)NCC(=O)N[C@@H](C)C(=O)N[C@H](C(=O)N[C@@H](CO)C(=O)N[C@@H](Cc1ccc(O)cc1)C(=O)N[C@@H](CC(N)=O)C(=O)N[C@@H](CCC(N)=O)C(=O)N[C@@H](CCCCN)C(=O)N[C@@H](Cc1ccccc1)C(=O)N[C@@H](CCCCN)C(=O)O)[C@@H](C)O [S3A] (H-YIACYNGATSYNQKFK-OH; N-terminus and C-terminus assumed) |  |  |  |  | Anti-Candida activity (%) at 100 µg/mL [2, 10]: 100.00%; pEC50 [2]: 5.51; EC50asd/EC50H2 [2]: 0.74; pEC50 [6]: 4.19 |
| C[C@H](NC(=O)[C@H](Cc1ccc(O)cc1)NC(=O)[C@H](Cc1ccc(O)cc1)NC(=O)CN)C(=O)N[C@@H](Cc1c[nH]cn1)C(=O)O [M4A] (H-GYYAH-OH; N-terminus and C-terminus assumed) |  |  |  |  | % inhibitory activity (10 µg/ml) [1]: 41% |
| VLAYDGSYQHYADSVKG [HuA H2, synthetic peptide identical to heavy chain CDR H2 of human IgM mAb HuA] | 0 | 0 | 74 | 40 |  |
| CC[C@H](C)[C@H](NC(=O)[C@H](C)N)C(=O)N[C@@H](CO)C(=O)N[C@@H](CS)C(=O)N[C@@H](Cc1ccc(O)cc1)C(=O)N[C@@H](CC(N)=O)C(=O)NCC(=O)N[C@@H](C)C(=O)N[C@H](C(=O)N[C@@H](CO)C(=O)N[C@@H](Cc1ccc(O)cc1)C(=O)N[C@@H](CC(N)=O)C(=O)N[C@@H](CCC(N)=O)C(=O)N[C@@H](CCCCN)C(=O)N[C@@H](Cc1ccccc1)C(=O)N[C@@H](CCCCN)C(=O)O)[C@@H](C)O [Y1A] (H-AISCYNGATSYNQKFK-OH; N-terminus and C-terminus assumed) |  |  |  |  | Anti-Candida activity (%) at 100 µg/mL [2, 10]: 99.37%; pEC50 [2]: 5.21; EC50asd/EC50H2 [2]: 1.48; pEC50 [6]: 4.15 |
